Read-outs that look alike come from different tables or passages of the source. Values belong to the compound of their own block, whether it stands above or below them.
Tests used:
Format in all cases: physicochemical
[1] = Inter-conversion study (competitive slurry); details: for Slurry at 50° C. 1 or 7 d (wet cake) / Slurry at RT (~20° C.) 3 d (wet cake): competitive slurry in IPA, resulting form; for form after slurry: ACN-water (1/9); for Form at 7 d: slurry in ACN/water 1/9 (v/v)
Experimental: (20 mg/mL) and RT (10 mg/mL), and in ACN-water (1/9) at 50° C. (10 mg/mL) and RT (5 mg/mL).
The mixture of crystalline Form I and crystalline Form V of the sample was suspended in IPA at 50° C. (20 mg/mL) and RT (5 mg/mL).
The residual solids from both mixtures were obtained and characterized.

[2] = Stability study (grinding, high humidity)
Experimental: A certain amount (e.g., ˜10 mg) of crystalline Form I was ground for 2 min or put at 25° C./92.5% RH for 2 weeks. Then the sample was tested by XRPD to determine the physical stability.

Slurry study = details: XRPD; for Form of wet cake at 1 day: 50° C.; for Form of wet cake at 4 days: RT (~20° C.), ~25 mg/mL
Experimental: Appropriate amount of crystalline Form I was added into different solvents to make suspension. The suspensions were kept stirring at room temperature (RT, ˜20° C.) or 50° C., respectively. Solid samples were collected and analyzed by XRPD at a specific time. If new XRPD patterns were identified, the sample was further analyzed by DSC and TGA.

Rough solubility testing = details: for solubility: thermodynamic from solid, ~20° C., read-out: Solubility of Tosylate (mg/mL, ~20° C.); for solubility (in words): RT (~20° C.)
Experimental: About 2 mg of crystalline Form I was weighed into glass vials, and then different selected solvents were added in the vial stepwise until all solid was dissolved. This experiment was conducted by manual dilution combined with visual observation at ˜20° C. The total volume of solvent added was recorded.

Water activity study = assay: Water activity study
Experimental: A certain amount (e.g., ˜70 mg) of crystalline Form I was stirred in 500 μL of acetone-water mixtures with different water content (5%, 10%, 30%, 50%, 70% and 90%) at RT (˜20° C.) for 3, 7 or 8 days. Residual solids were collected and characterized.

[3] = Dynamic moisture sorption analysis (DVS)
Experimental: DVS was determined using DVS Intrinsic (SMS, UK). A sample was tested at a targeted relative humidity (RH) of 10 to 90% full cycle in step mode. The analysis was performed in 10% RH increments: • Equilibrium: 60 min; • RH (%) measurement points: • Sorption: 0, 10, 20, 30, 40, 50, 60, 70, 80, 90 • Desorption: 80, 70, 60, 50, 40, 30, 20, 10, 0.

[4] = Form conversion on heating / desolvation (XRPD, FIG. 5, FIG. 8)
[5] = slurry in Acetone/water 1/1 (v/v), water activity 0.93, RT
[6] = slurry in Acetone/water 1/9 (v/v), water activity 0.98, RT
[7] = slurry in Acetone/water 3/7 (v/v), water activity 0.95, RT
[8] = slurry in Acetone/water 7/3 (v/v), water activity 0.88, RT
[9] = slurry in Acetone/water 9/1 (v/v), water activity 0.72, RT
[10] = slurry in Acetone/water 19/1 (v/v), water activity 0.31, RT

- Slurry at 50° C. 1 or 7 d (wet cake) ([1]; 50° C.): From I
- Slurry at RT (~20° C.) 3 d (wet cake) ([1]; RT): Form I
SMILES: C=CC(=O)Nc1cc(Nc2nccc(-n3ccc4cccnc43)n2)c(OC)cc1N(C)CCN(C)C.Cc1ccc(S(=O)(=O)O)cc1 [Form I and V (1:1)]

- solid-state stability ([2]; after stressing with temperature and high RH): good solid-state stability
- Physical stability (form change by XRPD) ([2]; high humidity, 25° C./92.5% RH for 2 weeks): No form change
- Physical stability (form change by XRPD) ([2]; mechanical stress (grinding, 2 min)): No form change
- Form of wet cake at 1 day (Slurry study; slurry in ACN): Form I
- Form of wet cake at 4 days (Slurry study; slurry in ACN): Form I
- Form of wet cake at 1 day (Slurry study; slurry in Acetone): Form I
- Form of wet cake at 4 days (Slurry study; slurry in Acetone): Form I
- Form of wet cake at 1 day (Slurry study; slurry in EA): Form I
- Form of wet cake at 4 days (Slurry study; slurry in EA): Form I
- Form of wet cake at 1 day (Slurry study; slurry in EtOH): Form I
- Form of wet cake at 4 days (Slurry study; slurry in EtOH): Form I
- Form of wet cake at 1 day (Slurry study; slurry in Heptane): Form I
- Form of wet cake at 4 days (Slurry study; slurry in Heptane): Form I
- Form of wet cake at 1 day (Slurry study; slurry in IPA): Form I
- Form of wet cake at 4 days (Slurry study; slurry in IPA): Form I
- Form of wet cake at 1 day (Slurry study; slurry in IPAC): Form I
- Form of wet cake at 4 days (Slurry study; slurry in IPAC): Form I
- Form of wet cake at 1 day (Slurry study; slurry in Isobutanol): Form I
- Form of wet cake at 4 days (Slurry study; slurry in Isobutanol): Form I
- Form of wet cake at 1 day (Slurry study; slurry in MEK): Form I
- Form of wet cake at 4 days (Slurry study; slurry in MEK): Form I
- Form of wet cake at 1 day (Slurry study; slurry in MTBE): Form I
- Form of wet cake at 4 days (Slurry study; slurry in MTBE): Form I
- Form of wet cake at 1 day (Slurry study; slurry in THF): Form I
- Form of wet cake at 4 days (Slurry study; slurry in THF): Form I
- Form of wet cake at 1 day (Slurry study; slurry in Toluene): Form I
- Form of wet cake at 4 days (Slurry study; slurry in Toluene): Form I
- Form of wet cake at 1 day (Slurry study; slurry in Water): Form I
- Form of wet cake at 4 days (Slurry study; slurry in Water): Form I
- form after slurry ([1]; 50° C.): crystalline Form III
- form after slurry ([1]; RT): crystalline Form VI
- relative stability among crystal forms ([1]; polymorph screening, anhydrate forms): most stable anhydrate form
- solubility (Rough solubility testing; ACN (acetonitrile), organic solvent or mixture, solvent ACN): ~2.2 mg/mL
- solubility (in words) (Rough solubility testing; in MeOH and DCM): relatively high solubility
- solubility (in words) (Rough solubility testing; in the other single solvents (not MeOH, DCM)): very low solubility
- solubility (Rough solubility testing; organic solvent or mixture, solvent Acetone): ~0.95 mg/mL
- solubility (Rough solubility testing; organic solvent or mixture, solvent DCM): ~5.1 mg/mL
- solubility (Rough solubility testing; organic solvent or mixture, solvent EA): < 1 mg/mL
- solubility (Rough solubility testing; organic solvent or mixture, solvent EtOH): ~1.9 mg/mL
- solubility (Rough solubility testing; organic solvent or mixture, solvent Heptane): < 1 mg/mL
- solubility (Rough solubility testing; organic solvent or mixture, solvent IPA): < 1.11 mg/mL
- solubility (Rough solubility testing; organic solvent or mixture, solvent IPAC): < 1.2 mg/mL
- solubility (Rough solubility testing; organic solvent or mixture, solvent Isobutanol): < 1 mg/mL
- solubility (Rough solubility testing; organic solvent or mixture, solvent MEK): ~0.92 mg/mL
- solubility (Rough solubility testing; organic solvent or mixture, solvent MTBE): < 1.1 mg/mL
- solubility (Rough solubility testing; organic solvent or mixture, solvent MeOH): ~27.3 mg/mL
- solubility (Rough solubility testing; organic solvent or mixture, solvent THF): < 1.14 mg/mL
- solubility (Rough solubility testing; organic solvent or mixture, solvent Toluene): < 1.2 mg/mL
- solubility (Rough solubility testing; solvent Water): < 1.02 mg/mL
- Form at 3 d (Water activity study; [5]): Form V
- Form at 7 d (Water activity study; [5]): Form V
- Form at 3 d (Water activity study; [6]): Form I
- Form at 7 d (Water activity study; [6]): Form I
- Form at 3 d (Water activity study; [7]): Form V
- Form at 7 d (Water activity study; [7]): Form V
- Form at 3 d (Water activity study; [8]): Form V
- Form at 7 d (Water activity study; [8]): Form V
- Form at 3 d (Water activity study; [9]): Form V
- Form at 7 d (Water activity study; [9]): Form V
- Form at 3 d (Water activity study; [10]): Form I
- Form at 7 d (Water activity study; [10]): Form VII
- Form at 8 d (Water activity study; [10]): Form V
SMILES: C=CC(=O)Nc1cc(Nc2nccc(-n3ccc4cccnc43)n2)c(OC)cc1N(C)CCN(C)C.Cc1ccc(S(=O)(=O)O)cc1 [Form I, N-(5-((4-(1H-pyrrolo[2,3-b]pyridin-1-yl)pyrimidin-2-yl)amino)-2-((2-(dimethylamino)ethyl)(methyl)amino)-4-methoxyphenyl)acrylamide tosylate salt]

- water sorption ([3]; 80% RH and 25° C.): 0.72%
- hygroscopicity ([3]; DVS, 80% RH and 25° C.): slightly hygroscopic
- crystalline form change after DVS test ([3]; after DVS test): no crystalline form change
SMILES: C=CC(=O)Nc1cc(Nc2nccc(-n3ccc4cccnc43)n2)c(OC)cc1N(C)CCN(C)C.Cc1ccc(S(=O)(=O)O)cc1 [Form VI, N-(5-((4-(1H-pyrrolo[2,3-b]pyridin-1-yl)pyrimidin-2-yl)amino)-2-((2-(dimethylamino)ethyl)(methyl)amino)-4-methoxyphenyl)acrylamide tosylate salt]

- form conversion after desolvation ([4]; desolvation at 170° C.): transform to crystalline Form III
SMILES: C=CC(=O)Nc1cc(Nc2nccc(-n3ccc4cccnc43)n2)c(OC)cc1N(C)CCN(C)C.Cc1ccc(S(=O)(=O)O)cc1 [Form II, N-(5-((4-(1H-pyrrolo[2,3-b]pyridin-1-yl)pyrimidin-2-yl)amino)-2-((2-(dimethylamino)ethyl)(methyl)amino)-4-methoxyphenyl)acrylamide tosylate salt]

- form conversion on heating ([4]; heated to 200° C.): convert to crystalline Form III
SMILES: C=CC(=O)Nc1cc(Nc2nccc(-n3ccc4cccnc43)n2)c(OC)cc1N(C)CCN(C)C.Cc1ccc(S(=O)(=O)O)cc1 [Form IV, N-(5-((4-(1H-pyrrolo[2,3-b]pyridin-1-yl)pyrimidin-2-yl)amino)-2-((2-(dimethylamino)ethyl)(methyl)amino)-4-methoxyphenyl)acrylamide tosylate salt]

- Slurry at 50° C. 1 or 7 d (wet cake) ([1]; 50° C.): Form I
- Slurry at RT (~20° C.) 3 d (wet cake) ([1]; RT): Form I
- Form at 7 d ([1]; 50° C.): Form III
- Form at 7 d ([1]; RT (~20° C.)): Form VI
SMILES: C=CC(=O)Nc1cc(Nc2nccc(-n3ccc4cccnc43)n2)c(OC)cc1N(C)CCN(C)C.Cc1ccc(S(=O)(=O)O)cc1 [Form I and III (1:1)]
